Measurements from the supplement of paper PMC12076712.

Columns and labels:
Assay in all cases: pIC50, kinobeads binding competition
UniProt Q16513 = target: UniProt Q16513
Procedure, shortened: (§1)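 Live Jurkat cells were treated with nine compound concentrations (top 30 μM, 1:4 steps) or DMSO for 60 min at 37 °C before lysis. Alternatively, Jurkat lysate or a 1:1:1:1 HEK293/K-562/HepG2/placenta lysate mix was incubated with nine concentrations (top 30 μM, 1:5 steps) for 60 min at 4 °C. Kinobeads-bound proteins were digested and quantified by TMT10 LC-MS/MS. pIC50 came from logistic dose-response fits (R drc package) of fold changes versus DMSO, in biological duplicates.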

UniProt P51955 = target: T1, UniProt P51955
T1 sequence (whole entry): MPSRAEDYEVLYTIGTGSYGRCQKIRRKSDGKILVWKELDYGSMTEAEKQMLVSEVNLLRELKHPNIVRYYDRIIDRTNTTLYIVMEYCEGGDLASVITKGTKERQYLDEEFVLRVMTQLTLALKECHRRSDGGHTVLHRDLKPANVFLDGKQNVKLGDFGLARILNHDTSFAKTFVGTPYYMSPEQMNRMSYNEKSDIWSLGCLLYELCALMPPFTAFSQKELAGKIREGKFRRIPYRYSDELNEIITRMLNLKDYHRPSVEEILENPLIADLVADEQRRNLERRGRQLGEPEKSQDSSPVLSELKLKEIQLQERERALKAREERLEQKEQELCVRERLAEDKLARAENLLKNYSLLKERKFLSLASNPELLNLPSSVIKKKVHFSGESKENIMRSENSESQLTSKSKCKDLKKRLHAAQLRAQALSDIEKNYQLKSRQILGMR
Procedure, shortened: as §1

AAK1 = AAK1 (UniProt Q2M2I8)
AAK1, sequence (Q2M2I8 whole entry, looked up): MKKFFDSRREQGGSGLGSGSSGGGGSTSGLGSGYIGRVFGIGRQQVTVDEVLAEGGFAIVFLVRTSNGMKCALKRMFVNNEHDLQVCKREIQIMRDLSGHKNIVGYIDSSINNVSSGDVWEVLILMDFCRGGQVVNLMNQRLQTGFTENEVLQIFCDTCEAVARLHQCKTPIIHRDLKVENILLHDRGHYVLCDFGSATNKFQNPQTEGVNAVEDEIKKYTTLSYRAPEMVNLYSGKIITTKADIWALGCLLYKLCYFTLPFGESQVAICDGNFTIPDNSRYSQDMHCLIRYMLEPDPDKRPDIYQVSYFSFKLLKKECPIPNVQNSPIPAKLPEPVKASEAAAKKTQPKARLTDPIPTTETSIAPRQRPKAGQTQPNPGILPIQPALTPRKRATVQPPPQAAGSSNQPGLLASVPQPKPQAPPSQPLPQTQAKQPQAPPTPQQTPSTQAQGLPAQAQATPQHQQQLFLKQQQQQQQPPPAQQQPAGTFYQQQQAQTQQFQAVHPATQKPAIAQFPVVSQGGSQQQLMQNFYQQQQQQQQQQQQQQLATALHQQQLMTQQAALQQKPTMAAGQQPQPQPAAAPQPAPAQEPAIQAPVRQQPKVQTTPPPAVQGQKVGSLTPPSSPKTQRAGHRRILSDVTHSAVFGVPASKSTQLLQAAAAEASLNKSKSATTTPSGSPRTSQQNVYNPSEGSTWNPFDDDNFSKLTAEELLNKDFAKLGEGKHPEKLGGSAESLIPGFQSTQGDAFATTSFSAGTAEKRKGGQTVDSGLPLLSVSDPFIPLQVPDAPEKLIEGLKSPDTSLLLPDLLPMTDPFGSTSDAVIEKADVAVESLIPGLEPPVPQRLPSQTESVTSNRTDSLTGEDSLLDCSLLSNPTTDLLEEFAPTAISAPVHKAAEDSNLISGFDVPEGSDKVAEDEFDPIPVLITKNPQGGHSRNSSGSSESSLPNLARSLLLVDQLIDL
Procedure, shortened: as §1

UniProt P07947 = target: UniProt P07947
UniProt P07947, sequence (P07947 whole entry, looked up): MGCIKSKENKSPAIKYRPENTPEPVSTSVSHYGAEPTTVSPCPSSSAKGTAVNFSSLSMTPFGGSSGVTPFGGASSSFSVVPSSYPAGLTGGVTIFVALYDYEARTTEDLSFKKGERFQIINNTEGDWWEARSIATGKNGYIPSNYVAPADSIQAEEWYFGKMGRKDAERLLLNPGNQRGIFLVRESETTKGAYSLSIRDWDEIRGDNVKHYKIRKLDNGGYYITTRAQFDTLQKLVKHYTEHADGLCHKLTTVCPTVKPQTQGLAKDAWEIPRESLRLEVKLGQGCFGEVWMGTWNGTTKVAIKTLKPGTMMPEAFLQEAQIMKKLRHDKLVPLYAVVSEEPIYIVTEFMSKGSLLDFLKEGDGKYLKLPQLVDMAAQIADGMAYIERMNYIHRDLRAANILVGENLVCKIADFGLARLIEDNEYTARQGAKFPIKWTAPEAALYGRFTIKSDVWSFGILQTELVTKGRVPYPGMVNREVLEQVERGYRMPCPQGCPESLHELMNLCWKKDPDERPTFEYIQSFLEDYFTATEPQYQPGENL
Procedure, shortened: as §1

DDR2 = target: T2, DDR2 (UniProt Q16832); conditions: cell material: Lysate mix
T2 sequence (whole entry): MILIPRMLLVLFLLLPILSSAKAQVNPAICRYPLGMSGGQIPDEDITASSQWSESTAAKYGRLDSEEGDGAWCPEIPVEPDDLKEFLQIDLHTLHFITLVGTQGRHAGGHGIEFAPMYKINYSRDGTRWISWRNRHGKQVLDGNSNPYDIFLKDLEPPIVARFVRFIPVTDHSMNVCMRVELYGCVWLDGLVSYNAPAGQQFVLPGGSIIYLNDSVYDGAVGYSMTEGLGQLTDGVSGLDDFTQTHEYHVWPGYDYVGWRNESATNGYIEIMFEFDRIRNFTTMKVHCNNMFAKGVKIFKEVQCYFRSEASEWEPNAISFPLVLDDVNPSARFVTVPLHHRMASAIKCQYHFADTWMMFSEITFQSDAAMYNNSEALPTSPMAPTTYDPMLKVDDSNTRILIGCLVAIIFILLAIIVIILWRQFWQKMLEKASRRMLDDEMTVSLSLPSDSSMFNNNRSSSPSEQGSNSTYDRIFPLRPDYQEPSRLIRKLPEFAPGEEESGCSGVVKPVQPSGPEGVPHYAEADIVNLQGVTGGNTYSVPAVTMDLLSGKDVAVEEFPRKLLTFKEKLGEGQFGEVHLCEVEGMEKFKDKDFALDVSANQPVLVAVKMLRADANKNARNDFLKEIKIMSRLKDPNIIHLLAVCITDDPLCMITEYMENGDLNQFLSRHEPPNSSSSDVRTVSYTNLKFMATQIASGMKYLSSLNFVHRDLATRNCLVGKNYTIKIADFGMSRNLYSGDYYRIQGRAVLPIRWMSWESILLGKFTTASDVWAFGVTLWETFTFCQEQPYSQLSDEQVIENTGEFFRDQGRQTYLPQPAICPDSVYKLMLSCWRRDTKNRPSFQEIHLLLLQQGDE
Procedure, shortened: as §1

MARK1 = MARK1 (UniProt Q9P0L2); conditions: cell material: Lysate mix
MARK1, sequence (Q9P0L2 whole entry, looked up): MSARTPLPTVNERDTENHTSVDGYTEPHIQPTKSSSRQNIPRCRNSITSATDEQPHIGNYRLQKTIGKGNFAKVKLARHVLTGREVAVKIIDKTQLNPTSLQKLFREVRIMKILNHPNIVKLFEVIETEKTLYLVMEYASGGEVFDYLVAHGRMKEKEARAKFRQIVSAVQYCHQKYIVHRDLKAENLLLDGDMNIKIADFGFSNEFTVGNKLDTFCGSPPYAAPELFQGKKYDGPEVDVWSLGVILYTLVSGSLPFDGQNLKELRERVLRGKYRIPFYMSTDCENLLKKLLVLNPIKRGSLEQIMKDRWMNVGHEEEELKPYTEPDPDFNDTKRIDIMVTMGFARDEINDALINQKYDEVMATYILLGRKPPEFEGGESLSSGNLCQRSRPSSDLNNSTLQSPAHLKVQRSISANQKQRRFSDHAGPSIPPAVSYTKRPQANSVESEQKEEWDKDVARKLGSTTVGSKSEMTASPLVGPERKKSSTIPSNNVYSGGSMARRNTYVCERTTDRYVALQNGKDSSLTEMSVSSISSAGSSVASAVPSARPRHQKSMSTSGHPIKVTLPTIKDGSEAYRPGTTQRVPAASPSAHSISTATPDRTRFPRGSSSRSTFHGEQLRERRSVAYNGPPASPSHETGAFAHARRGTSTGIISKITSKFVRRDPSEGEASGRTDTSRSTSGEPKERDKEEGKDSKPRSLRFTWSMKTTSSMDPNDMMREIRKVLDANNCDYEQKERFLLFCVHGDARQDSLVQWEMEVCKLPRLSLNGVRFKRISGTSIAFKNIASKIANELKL
Procedure, shortened: as §1

UniProt O00444 = target: T3, UniProt O00444
T3 sequence (whole entry): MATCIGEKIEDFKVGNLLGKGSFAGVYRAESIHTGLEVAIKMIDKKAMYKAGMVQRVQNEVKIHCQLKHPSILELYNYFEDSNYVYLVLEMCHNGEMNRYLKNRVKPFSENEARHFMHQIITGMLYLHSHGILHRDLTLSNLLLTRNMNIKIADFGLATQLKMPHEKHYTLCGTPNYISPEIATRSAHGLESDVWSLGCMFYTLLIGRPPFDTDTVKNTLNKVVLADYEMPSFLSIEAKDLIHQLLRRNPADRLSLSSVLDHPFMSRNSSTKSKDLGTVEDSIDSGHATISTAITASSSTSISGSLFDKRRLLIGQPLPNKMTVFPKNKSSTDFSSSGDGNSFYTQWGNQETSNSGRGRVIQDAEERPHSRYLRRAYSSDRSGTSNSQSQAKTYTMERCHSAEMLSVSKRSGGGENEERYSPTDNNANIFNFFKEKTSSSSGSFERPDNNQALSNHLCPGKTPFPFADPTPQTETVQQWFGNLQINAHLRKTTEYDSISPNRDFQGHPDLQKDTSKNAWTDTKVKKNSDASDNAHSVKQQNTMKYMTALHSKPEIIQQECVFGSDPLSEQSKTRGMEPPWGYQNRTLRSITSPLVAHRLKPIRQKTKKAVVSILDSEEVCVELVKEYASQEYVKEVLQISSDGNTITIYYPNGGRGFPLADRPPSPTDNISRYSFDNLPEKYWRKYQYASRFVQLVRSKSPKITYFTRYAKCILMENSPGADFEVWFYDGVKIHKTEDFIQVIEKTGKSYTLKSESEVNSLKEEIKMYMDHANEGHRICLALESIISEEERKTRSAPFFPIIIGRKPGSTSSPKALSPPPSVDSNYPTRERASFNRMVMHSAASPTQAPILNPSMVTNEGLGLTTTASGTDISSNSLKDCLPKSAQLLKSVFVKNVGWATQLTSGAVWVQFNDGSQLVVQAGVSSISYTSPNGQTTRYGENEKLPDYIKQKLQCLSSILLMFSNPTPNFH
Procedure, shortened: as §1

EPHA2 = EPHA2 (UniProt P29317); conditions: cell material: Lysate mix
EPHA2, sequence (P29317 whole entry): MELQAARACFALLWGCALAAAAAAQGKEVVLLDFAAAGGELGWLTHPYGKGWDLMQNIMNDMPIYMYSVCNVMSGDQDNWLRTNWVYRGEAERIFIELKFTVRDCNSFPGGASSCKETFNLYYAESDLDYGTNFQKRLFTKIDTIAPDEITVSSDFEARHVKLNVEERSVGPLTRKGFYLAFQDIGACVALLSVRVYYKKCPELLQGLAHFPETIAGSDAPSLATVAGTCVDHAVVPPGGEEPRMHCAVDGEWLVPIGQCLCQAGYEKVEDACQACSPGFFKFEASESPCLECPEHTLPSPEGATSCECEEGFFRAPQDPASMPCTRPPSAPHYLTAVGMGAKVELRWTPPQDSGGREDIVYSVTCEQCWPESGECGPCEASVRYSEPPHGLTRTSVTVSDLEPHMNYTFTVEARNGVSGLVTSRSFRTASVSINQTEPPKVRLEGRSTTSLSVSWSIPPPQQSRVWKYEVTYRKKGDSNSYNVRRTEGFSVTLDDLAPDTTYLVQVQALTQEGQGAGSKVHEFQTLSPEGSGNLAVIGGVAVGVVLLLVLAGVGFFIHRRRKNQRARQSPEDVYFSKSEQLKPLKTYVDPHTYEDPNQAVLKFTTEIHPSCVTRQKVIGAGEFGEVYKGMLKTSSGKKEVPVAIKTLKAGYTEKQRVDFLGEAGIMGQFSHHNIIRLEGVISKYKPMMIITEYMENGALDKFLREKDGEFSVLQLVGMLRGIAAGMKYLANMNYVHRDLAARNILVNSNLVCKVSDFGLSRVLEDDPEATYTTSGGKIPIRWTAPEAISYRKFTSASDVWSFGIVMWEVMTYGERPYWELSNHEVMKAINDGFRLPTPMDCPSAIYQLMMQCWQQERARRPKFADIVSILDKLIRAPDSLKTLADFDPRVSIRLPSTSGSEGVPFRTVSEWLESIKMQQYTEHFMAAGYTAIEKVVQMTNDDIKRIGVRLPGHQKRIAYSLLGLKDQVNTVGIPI
Procedure, shortened: as §1

UniProt P49674 = target: UniProt P49674
UniProt P49674, sequence (P49674 whole entry, looked up): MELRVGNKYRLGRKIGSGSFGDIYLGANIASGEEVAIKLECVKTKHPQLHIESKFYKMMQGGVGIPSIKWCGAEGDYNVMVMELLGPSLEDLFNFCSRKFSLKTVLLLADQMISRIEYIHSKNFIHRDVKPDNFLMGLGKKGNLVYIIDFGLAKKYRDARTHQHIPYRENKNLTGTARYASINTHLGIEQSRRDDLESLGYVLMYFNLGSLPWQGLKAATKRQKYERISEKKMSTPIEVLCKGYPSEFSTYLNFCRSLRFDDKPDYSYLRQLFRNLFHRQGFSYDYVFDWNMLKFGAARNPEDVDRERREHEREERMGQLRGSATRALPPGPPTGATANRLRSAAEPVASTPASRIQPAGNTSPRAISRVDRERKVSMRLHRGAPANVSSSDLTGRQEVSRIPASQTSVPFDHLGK
Procedure, shortened: as §1

UniProt P17252 = target: UniProt P17252
Procedure, shortened: as §1

| SMILES | pIC50 (UniProt Q16513; cell material: Lysate mix) | pIC50 (UniProt P51955; cell material: Lysate mix) | pIC50 (AAK1; cell material: Lysate mix) | pIC50 (UniProt P07947; cell material: Lysate mix) | pIC50 (DDR2) | pIC50 (MARK1) | pIC50 (UniProt O00444; cell material: Lysate mix) | pIC50 (EPHA2) | pIC50 (UniProt P49674; cell material: Lysate mix) | pIC50 (UniProt P17252; cell material: Lysate mix) | pIC50 (UniProt Q16513; cell material: Jurkat cells) | pIC50 (UniProt Q16513; cell material: Jurkat lysate) | pIC50 (UniProt P51955; cell material: Jurkat cells) | pIC50 (UniProt P51955; cell material: Jurkat lysate) | pIC50 (AAK1; cell material: Jurkat cells) | pIC50 (AAK1; cell material: Jurkat lysate) | pIC50 (UniProt P07947; cell material: Jurkat cells) | pIC50 (UniProt P07947; cell material: Jurkat lysate) | pIC50 (UniProt O00444; cell material: Jurkat cells) | pIC50 (UniProt O00444; cell material: Jurkat lysate) | pIC50 (UniProt P49674; cell material: Jurkat cells) | pIC50 (UniProt P49674; cell material: Jurkat lysate) | pIC50 (UniProt P17252; cell material: Jurkat cells) | pIC50 (UniProt P17252; cell material: Jurkat lysate) |
| --- | --- | --- | --- | --- | --- | --- | --- | --- | --- | --- | --- | --- | --- | --- | --- | --- | --- | --- | --- | --- | --- | --- | --- | --- |
| C#CCNC(=O)c1cc(Nc2cc(C3CC3)[nH]n2)nc(N2CCN(Cc3ccc(S(=O)(=O)F)cc3)CC2)n1 | < 4.52 | 5.87 | < 4.52 | 6.62 | < 4.52 | < 4.52 | 6.02 | < 4.52 | < 4.52 | < 4.52 | 5.32 | < 4.52 | 6.69 | 5.41 | 5.43 | < 4.52 | 6.61 | 5.84 | 5.96 | 5.44 | 5.4 | < 4.52 | 5.48 | < 4.52 |
| O=C(NCCNC(=O)c1cc(Nc2cc(C3CC3)[nH]n2)nc(N2CCN(Cc3ccc(S(=O)(=O)F)cc3)CC2)n1)OC1CC/C=C/CCC1 (stereo not given) | < 4.52 | < 4.52 | < 4.52 | 5.24 | < 4.52 | < 4.52 | < 4.52 | < 4.52 | < 4.52 | < 4.52 |  | < 4.52 | 6.24 | < 4.52 | < 4.52 | < 4.52 | 6.18 | 4.62 | 5.5 | < 4.52 |  | < 4.52 |  | < 4.52 |
| Cc1cc(Nc2cc(C(=O)NCCNC(=O)OC3CC/C=C/CCC3)nc(N3CCN(Cc4ccc(S(=O)(=O)F)cc4)CC3)n2)n[nH]1 (stereo not given) | < 4.52 | < 4.52 | < 4.52 | 5.25 | < 4.52 | < 4.52 | < 4.52 | < 4.52 | < 4.52 | < 4.52 |  |  |  |  |  |  |  |  |  |  |  |  |  |  |

The next lines start with results.

| pIC50 (UniProt Q16513; cell material: Lysate mix) | pIC50 (UniProt P51955; cell material: Lysate mix) | pIC50 (AAK1; cell material: Lysate mix) | pIC50 (UniProt P07947; cell material: Lysate mix) | pIC50 (DDR2) | pIC50 (MARK1) | pIC50 (UniProt O00444; cell material: Lysate mix) | pIC50 (EPHA2) | pIC50 (UniProt P49674; cell material: Lysate mix) | pIC50 (UniProt P17252; cell material: Lysate mix) | SMILES | pIC50 (UniProt Q16513; cell material: Jurkat cells) | pIC50 (UniProt Q16513; cell material: Jurkat lysate) | pIC50 (UniProt P51955; cell material: Jurkat cells) | pIC50 (UniProt P51955; cell material: Jurkat lysate) | pIC50 (AAK1; cell material: Jurkat cells) | pIC50 (AAK1; cell material: Jurkat lysate) | pIC50 (UniProt P07947; cell material: Jurkat cells) | pIC50 (UniProt P07947; cell material: Jurkat lysate) | pIC50 (UniProt O00444; cell material: Jurkat cells) | pIC50 (UniProt O00444; cell material: Jurkat lysate) | pIC50 (UniProt P49674; cell material: Jurkat cells) | pIC50 (UniProt P49674; cell material: Jurkat lysate) | pIC50 (UniProt P17252; cell material: Jurkat cells) | pIC50 (UniProt P17252; cell material: Jurkat lysate) |
| --- | --- | --- | --- | --- | --- | --- | --- | --- | --- | --- | --- | --- | --- | --- | --- | --- | --- | --- | --- | --- | --- | --- | --- | --- |
| < 4.52 | 4.81 | < 4.52 | 6.3 | < 4.52 | < 4.52 | 5.39 | < 4.52 | < 4.52 | < 4.52 | C#CCNC(=O)c1cc(Nc2cc(C)[nH]n2)nc(N2CCN(Cc3ccc(S(=O)(=O)F)cc3)CC2)n1 |  |  |  |  |  |  |  |  |  |  |  |  |  |  |
| < 4.52 | 5.69 | < 4.52 | 6.44 | 4.57 | < 4.52 | 5.81 | < 4.52 | < 4.52 | 5.11 | CCNC(=O)c1cc(Nc2cc(C3CC3)[nH]n2)nc(N2CCN(Cc3ccc(S(=O)(=O)F)cc3)CC2)n1 |  |  |  |  |  |  |  |  |  |  |  |  |  |  |
| < 4.52 | 4.67 | < 4.52 | 7.16 | < 4.52 | < 4.52 | 5.97 | < 4.52 | < 4.52 | < 4.52 | CCNC(=O)c1cc(Nc2cc(C)[nH]n2)nc(N2CCN(Cc3ccc(S(=O)(=O)F)cc3)CC2)n1 |  |  |  |  |  |  |  |  |  |  |  |  |  |  |
